Assay results: patent US20070015813A1, “Treatment of protein folding disorders” (QUEEN'S UNIVERSITY AT KINGSTON, priority 2005, published 2007)

Experiments:
Aβ1-42 = biological target: T1, Aβ1-42 (Homo sapiens, UniProt P05067); test: Kinetic Thioflavin T (ThT) aggregation assay of Aβ1-42; format: biochemical; settings: 20 μM Aβ1-42, kinetic ThT assay
T1 construct: Aβ^1-42 (AnaSpec, lot 45685); purchased AnaSpec
Procedure: Aβ^1-42 (1.0 mg) was either pretreated with HFIP in the same manner as Aβ^1-40 or this step was omitted. After removing HFIP, when appropriate, Aβ^1-42 was dissolved in 1% NH3 (aq.) (200 μL) and sonicated for 1 min. The solution was diluted with Tris-HCl (5.7 mL, 20 mM, pH 7.4), the pH adjusted to 7.4 with concentrated HCl (aq.) and the solution filtered using a syringe filter (0.2 μm). Prior to use in the ThT aggregation assay, the solution was diluted with an equal volume of 8 μM Thioflavin T (ThT) in Tris-HCl (20 mM, pH 7.4, 300 mM NaCl).
(§1) Aliquots (200 μL) of Aβ^1-40, Aβ^1-42, tau441 or α-synuclein with ThT or ThS were added to wells of a black polystyrene 96-well plate, followed by 2 μL of a compound in DMSO (various concentrations), or DMSO alone (controls). For α-synuclein, sodium dodecyl sulfate solution (2.0 μL, 30 mM) was also added to each well to induce aggregation. Incubations were performed in triplicate and were taken to contain 20 μM Aβ^1-40 or Aβ^1-42, 6 μM tau441 or 4 μM α-synuclein. Plates were covered with clear polystyrene lids and incubated at 37° C. in a GENios microplate reader obtained from Tecan Group Limited, Mannedorf, Zurich. For Aβ^1-40, tau441 and α-synuclein, fluorescence readings (λex=450 nm, λem=480 nm) were taken every 15 min., after first shaking at high intensity for 15 sec. and allowing to settle for 10 sec. before each reading. For Aβ^1-42, readings were taken every 5 min.
(§2) The absorbance of each compound was measured under the conditions used during testing, though on ten times the scale (2 mL), to ensure no significant quenching interfered with the assay. This step was also used to identify whether compounds were completely soluble under testing conditions.
FIG. 7 depicts inhibition of Aβ^1-42 aggregation by various synthesized bi-aromatic compounds and positive controls morin (Ono K, Yoshiike Y, Takashima A, Hasegawa K, Naiki H, Yamada M. 2003. J Neurochem 87:172-81) and RS-0406 (Walsh D M, Townsend M, Podlisny M B, Shankar G M, Fadeeva J V, Agnaf O E, Hartley D M, Selkoe D J. 2005. J Neurosci 25:2455-62) in the kinetic ThT assay. Same conditions as for Aβ^1-40, FIG. 1. Compound concentrations were 100 μM in (A), 20 μM in (B), except for RS-0406, which was tested at 100 μM, and 20 μM in (C).

Aβ1-40 = biological target: T2, Aβ1-40 (Homo sapiens, UniProt P05067); test: Kinetic Thioflavin T (ThT) aggregation assay of Aβ1-40; format: biochemical; settings: for inhibition of Aβ1-40 aggregation, as measured by Thioflavin T (ThT) fluorescence: 20 μM Aβ1-40, 4 μM ThT, pH 7.4, 37° C., kinetic ThT assay
T2 construct: Aβ^1-40 (AnaSpec, San Jose, Calif., lots 14212, 34862 and 34889); purchased AnaSpec, San Jose, Calif
T2 sequence (P05067 672-711 limits assumed): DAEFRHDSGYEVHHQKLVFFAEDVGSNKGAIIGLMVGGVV
Procedure: Aβ^1-40 (1.0 mg) was pre-treated in a 1.5 mL microfuge tube with 1,1,1,3,3,3-hexafluoroisopropanol (HFIP, 1 mL) and sonicated for 20 min. to disassemble any pre-formed Aβ aggregates. The HFIP was removed with a stream of argon and the Aβ dissolved in Tris base (5.8 mL, 20 mM, pH 10.5). The pH was adjusted to 7.4 with concentrated HCl and the solution filtered using a syringe filter (0.2 μm). This solution was used for circular dichroism studies or diluted with an equal volume of 8 μM Thioflavin T (ThT) in Tris-HCl (20 mM, pH 7.4, 300 mM NaCl) for the ThT aggregation assay.
as §1, §2
FIG. 1 depicts the inhibition of Aβ^1-40 aggregation, as measured by Thioflavin T (ThT) fluorescence, by directly-linked 3,3′-bis-indolyl compounds 0c-i (A), other bis-indoles (B), aza-indole-containing compounds (C), indole-phenols (D), indole-5-carboxylic acid-containing bi-aromatics (E), and naphthol-containing bi-aromatics (F). Aggregation conditions: 20 μM Aβ^1-40 incubated in covered black 96-well polystyrene microplates with 4 μM ThT, pH 7.4, Tris-HCl (20 mM), 150 mM NaCl, 1% DMSO. Compound concentrations are 200 μM (A,B, except where otherwise noted), 100 μM (E), 20 μM (F), or as indicated (C,D). Plates heated at 37° C. in Tecan Genios microplate reader. All incubations performed in triplicate. Prior to experiment, Aβ^1-40 pretreated with 1,1,1,3,3,3-hexafluoroisopropanol (HFIP). Fluorescence readings: fluorescence measured every 15 min. (λex=450 nm, λem=480 nm) after shaking for 15 sec. and pausing 10 sec. before taking measurement. Values are the mean of three replicates. Error bars, omitted for clarity in (B), represent standard deviation of the mean.

tau441 = biological target: T3, tau441 (Homo sapiens, UniProt P10636); test: Kinetic Thioflavin S (ThS) assay of tau441 aggregation; format: biochemical
T3 construct: (expression construct); host or cells: E. coli BL21 D3
T3 sequence (P10636 1-441 isoform P10636-8): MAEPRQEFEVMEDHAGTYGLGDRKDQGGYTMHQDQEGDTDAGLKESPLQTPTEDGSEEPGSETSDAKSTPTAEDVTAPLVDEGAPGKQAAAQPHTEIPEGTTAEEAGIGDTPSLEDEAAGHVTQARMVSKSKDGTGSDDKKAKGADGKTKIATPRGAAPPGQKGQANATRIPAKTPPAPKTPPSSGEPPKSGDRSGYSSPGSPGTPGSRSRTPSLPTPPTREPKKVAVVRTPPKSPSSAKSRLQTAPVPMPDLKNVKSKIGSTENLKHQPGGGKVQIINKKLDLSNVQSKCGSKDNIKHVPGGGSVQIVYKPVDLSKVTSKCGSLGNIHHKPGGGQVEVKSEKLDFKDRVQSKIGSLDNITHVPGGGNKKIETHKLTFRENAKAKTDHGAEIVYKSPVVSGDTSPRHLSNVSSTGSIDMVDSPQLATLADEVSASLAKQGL
Procedure: The tau441 expression construct [L Buee et al. (2000). Brain Research Reviews 33:95-130] was purchased (Bioclon Inc., San Diego, Calif.) already transformed in BL21 D3 bacterial cells (Novagen/EMD Biosciences) for protein expression. Cells were grown and induced with IPTG according to Novagen's protocol. To lyse cells, Cellytic B reagent (Sigma) was used with lysozyme protease inhibitors (Sigma) and benzonase (Novagen/EMD Biosciences), according to manufacturer's methods. Lysate was cleared by centrifugation for 20 min at 10,000 RPM (SS34 rotor, Sorvall RC2b centrifuge) at 4° C. Protein was purified from the soluble fraction. Once purified, tau441 was stored at −78° C. as frozen aliquots (8.3 mg/mL, 60 μL) in Tris-HCl (50 mM, pH 7.4) until used.
Frozen aliquots of tau441 (8.3 mg/mL, 60 μL) in Tris-HCl (50 mM, pH 7.4) were allowed to thaw at room temperature (RT) before being diluted with Tris-HCl (2.64 mL, 50 mM, pH 7.4) containing dithiothreitol (DTT, 1 mM) to prevent disulfide bonds and NaN3 (50 μM) to prevent bacterial growth. After allowing to stand at RT for 1 h, Thioflavin S (ThS) was added (2.5 μL, 10.8 mM), followed by the aggregation inducer heparin (20 μL, 1.08 g/mL).
as §1
Aggregation conditions: tau441 at a concentration of either 10 μM (A) or 4 μM (B,C,D,E) was incubated in covered black 96-well polystyrene microplates alone or with 100 (A) or 50 μM compound (B,C,D,E), 5 μM ThS, pH 7.4, Tris-HCl (50 mM) containing NaN3 (50 μM), and either 1% MeOH (A) or 1% DMSO (B,C,D,E). Plates were heated at 37° C. in a Tecan GENios microplate reader. All incubations performed in triplicate, except for compound 0c in (A), which had n=1. Fluorescence readings: fluorescence measured every 15 min. (λex=450 nm, λem=480 nm) after shaking for 15 sec. and pausing 10 sec. before taking measurement. Values are the mean of three replicates. Error bars, sometimes not visible due to small size, represent standard deviation of the mean.
Aggregation conditions: tau441 at a concentration of 4 μM was incubated in covered black 96-well polystyrene microplates alone or with 50 μM (A,B,C) or 1 mM compound (D), 5 μM ThS, pH 7.4, Tris-HCl (50 mM) containing NaN3 (50 μM), and 1% DMSO. Plates were heated at 37° C. in a Tecan GENios microplate reader. All incubations performed in triplicate. Fluorescence readings: fluorescence measured every 15 min. (λex=450 nm, λem=480 nm) after shaking for 15 sec. and pausing 10 sec. before taking measurement. Values are the mean of three replicates. Error bars, sometimes not visible due to small size, represent standard deviation of the mean.

[1] = Colour on exposure to light and air (stability to oxidation); format: physicochemical; settings: solid compounds, days or weeks
Procedure: The highly branched bridging groups of 1h,i,j provide additional molecular diversity to help identify favourable characteristics for compound activity against Aβ.

T1 sequence (P05067 672-713 limits assumed): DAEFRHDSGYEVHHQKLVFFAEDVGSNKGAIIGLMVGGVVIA

| SMILES | inhibition of Aβ1-42 aggregation, as measured by ThT fluorescence (Aβ1-42) | melting point | also measured |
| --- | --- | --- | --- |
| Oc1cccc(Nc2ccc(Nc3cccc(O)c3)nn2)c1 [RS-0406] | inhibition | – | – |
| COc1ccc2c(ccn2Cc2c[nH]c3ccc(OC)cc23)c1 [1d, 5-methoxy-3-((5-methoxy-indol-1-yl)methyl)-indole] | – | 48 to 50 °C | – |
| B.COc1ccc2[nH]cc(-c3c[nH]c4ncccc34)c2c1 [10n, 3-(5-methoxyindol-3-yl)-7-azaindole.BH3] | inhibit aggregation | – | inhibition of Aβ1-40 aggregation, as measured by Thioflavin T (ThT) fluorescence (Aβ1-40): inhibit aggregation |
| O=C(O)c1ccc2c(-c3c[nH]c4ccccc34)c[nH]c2c1 [0k, 3-(Indol-3-yl)-indole-6-carboxylic Acid] | inhibiting aggregation | – | – |
| O=C(O)c1cccnc1 [nicotinic acid] | – | – | effect on tau fibrillization (ThS fluorescence) at 1 mM (tau441; tau441 4 μM, 1 mM compound (FIG. 11D)): no effect |
| COc1ccc2[nH]cc(-c3c[nH]c4ccc(OC)cc34)c2c1 [0b, 5-methoxy-3-(5-methoxy-indol-3-yl)-indole] | – | 193 to 196 °C | – |
| O=C(O)c1ccc2[nH]cc(CCc3c[nH]c4ccc(Br)cc34)c2c1 [2b, 3-(2-(5-bromo-indol-3-yl)ethyl)-indole-5-carboxylic Acid] | – | 205 °C (dec.) | – |
| CC(C)(c1c[nH]c2ccc(O)cc12)c1c[nH]c2ccc(O)cc12 [1h, 2,2-Bis-(5-hydroxyindol-3-yl)propane] | – | 133 to 136 °C | colour when exposed to light and air [1]: remained a light colour |
| O=C(O)c1ccc2[nH]c(Cc3ccc(O)cc3)c(Cc3ccc(O)cc3)c2c1 [compound 102, 2,3-bis(4-hydroxybenzyl)-indole-5-carboxylic Acid] | – | – | activity against (inhibition of) Aβ1-40 aggregation at 200 μM compound (Aβ1-40; 200 μM compound, 20 μM Aβ1-40, kinetic ThT assay (FIG. 1A, 1D)): active |
| c1ccc2c(c1)ccn2Cc1c[nH]c2ccccc12 [1b, 3-((indol-1-yl)methyl)-indole] | – | 82 to 84 °C | – |
| CC1(C)CC2(CC(C)(C)c3c2[nH]c2ccc(O)cc32)c2[nH]c3ccc(O)cc3c21 [1j, 3,3,3′,3′-Bis(1,2,3,4-tetrahydro-1,1-dimethylcyclopenta[b]indol-7-ol)] | – | 140 °C (dec.) | colour when exposed to light and air [1]: remained a light colour |
| CC1(C)CC(C)(c2c[nH]c3ccc(O)cc23)c2[nH]c3ccc(O)cc3c21 (stereo not shown) [1i, 1,2,3,4-Tetrahydro-3-(5-hydroxyindol-3-yl)-1,1,3-trimethylcyclopenta[b]indol-7-ol] | – | 132 °C (dec.) | colour when exposed to light and air [1]: remained a light colour |
| Oc1ccc2[nH]cc(C3CNc4ncccc43)c2c1 (stereo not shown) [0n, 3-(2,3-dihydro-7-azaindol-3-yl)-indol-5-ol] | inhibit aggregation | – | inhibition of Aβ1-40 aggregation, as measured by Thioflavin T (ThT) fluorescence (Aβ1-40): inhibit aggregation |
| O=C(O)c1sc2ccccc2c1-c1cc2ccccc2o1 [compound 83, 3-(Benzofuran-2-yl)-benzothiophene-2-carboxylic Acid] | – | – | effect on tau fibrillization (ThS fluorescence) (tau441; tau441 4 or 10 μM, 50 to 100 μM compound, 5 μM ThS, heparin inducer, pH 7.4, 37° C.): Other than 83 in FIG. 10E, all the bi-aromatics tested significantly modulated |
| B.O=C(O)c1ccc2[nH]cc(-c3c[nH]c4ncccc34)c2c1 [0o, 3-(7-azaindol-3-yl)-indole-5-carboxylic acid.BH3] | inhibit aggregation | – | inhibition of Aβ1-40 aggregation, as measured by Thioflavin T (ThT) fluorescence (Aβ1-40): inhibit aggregation |
| Oc1ccc2cc(-c3cc4ccccc4o3)ccc2c1 [compound 64, 6-Benzofuran-2-yl-naphthalen-2-ol] | inhibiting aggregation | – | – |
